Test [1] concerns the target Gastrin/cholecystokinin type B receptor (Cavia porcellus). The test is described as follows: Apparent affinity to inhibit binding of [3H]pCCK-8 to Cholecystokinin type B receptor of guinea pig brain membranes.
Test [2] shares this target. The test is described as above. This is another data set of the same source.

We go through five compounds from BindingDB's records for doi:10.1021/jm00174a016 (University of Paris, 1991).

Structures are written as SMILES. Where a SMILES comes first, the peptide text is derived from it. [ ]: non-standard residue; d: D form. The star is where a group is joined. sY = N[C@@H](Cc1ccc(OS(=O)(=O)O)cc1)C(=O)O; Nle = CCCC[C@H](N)C(=O)O; Orn = NCCC[C@H](N)C(=O)O; Cbz = O=C(OCc1ccccc1)*; Boc = CC(C)(C)OC(=O)*

As to `CC(C)(C)OC(=O)N[C@@H](Cc1c[nH]c2ccccc12)C(=O)N[C@@H](CCCN)C(=O)N[C@@H](CC(=O)O)C(=O)N[C@@H](Cc1ccccc1)C(N)=O` (Boc-W[Orn]DF-NH2), the Ki in test [1] was 1400 nM.

As to `CC(C)(C)OC(=O)N[C@@H](Cc1c[nH]c2ccccc12)C(=O)N[C@@H](CCCNC(=O)OCc1ccccc1)C(=O)N[C@@H](CC(=O)O)C(=O)N[C@@H](Cc1ccccc1)C(N)=O` (Boc-W[Orn](Cbz)DF-NH2), the Ki in test [2] was 580 nM.

`CCCC[C@H](NC(=O)[C@H](Cc1ccc(OS(=O)(=O)O)cc1)NC(=O)OC(C)(C)C)C(=O)NCC(=O)N[C@@H](Cc1c[nH]c2ccccc12)C(=O)N[C@@H](CCCNC(=O)OCc1ccccc1)C(=O)N[C@@H](CC(=O)O)C(N)=O` (Boc-[sY][Nle]GW[Orn](Cbz)D-NH2): the Ki in test [2] worked out at 54 nM.

As for `CC(C)(C)OC(=O)N[C@@H](Cc1c[nH]c2ccccc12)C(=O)N[C@@H](CCCNC(=O)OCc1ccccc1)C(=O)N[C@@H](CC(=O)O)C(N)=O` (Boc-Trp-[Orn](Cbz)-Asp-NH2), the Ki in test [2] is 4200 nM.

Consider `CC(C)(C)OC(=O)NCCC[C@H](NC(=O)[C@H](Cc1c[nH]c2ccccc12)NC(=O)OC(C)(C)C)C(=O)N[C@@H](CC(=O)O)C(N)=O` [3-{5-tert-Butoxycarbonylamino-2-[2-tert-butoxycarbonylamino-3-(1H-indol-3-yl)-propionylamino]-pentanoylamino}-succinamic acid] (Boc-Trp-[Orn](Boc)-Asp-NH2), for which the Ki in test [1] turned out to be 4300 nM.
